One block for each molecule: values may come before it.
How the values were obtained:
tau [1] = molecular target: T1, tau (Homo sapiens, UniProt P10636); experiment: Intracellular tau aggregation in tau-BiFC cell model (forskolin-induced); type: cell-based; design: fused on or other part: N-terminal and C-terminal non-fluorescent fragments of Venus fused to tau (BiFC reporter handles); conditions: forskolin 30 μM; for concentration dependence of tau-BiFC fluorescence value: 1-100 μM; for tau aggregation in tau-BiFC cells (Example 5, metabolites comparison): varying concentrations
T1 sequence (P10636 1-441 isoform P10636-8): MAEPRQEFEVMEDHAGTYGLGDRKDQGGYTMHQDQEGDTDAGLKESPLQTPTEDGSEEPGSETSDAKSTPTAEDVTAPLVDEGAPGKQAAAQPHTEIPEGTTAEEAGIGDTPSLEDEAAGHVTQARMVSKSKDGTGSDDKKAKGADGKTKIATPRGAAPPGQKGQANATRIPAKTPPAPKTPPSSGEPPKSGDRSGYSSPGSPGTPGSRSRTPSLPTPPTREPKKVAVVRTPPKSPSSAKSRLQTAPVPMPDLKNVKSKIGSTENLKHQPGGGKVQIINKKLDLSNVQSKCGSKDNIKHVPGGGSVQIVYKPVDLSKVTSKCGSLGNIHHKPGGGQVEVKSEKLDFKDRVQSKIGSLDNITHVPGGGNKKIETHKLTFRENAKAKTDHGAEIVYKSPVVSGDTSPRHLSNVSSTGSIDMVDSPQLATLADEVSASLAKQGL
Procedure: Furthermore, the following examples were performed based on tau-BiFC cell model. The tau-BiFC cell model is a reliable system for monitoring the interaction between tau oligomers, and is a Venus protein-based BiFC method in which the N-terminal and C-terminal non-fluorescent fragments of Venus protein are fused to tau. A further detailed definition and method for the tau-BiFC cell model are as described in Korean Patent No. 10-1546485.
(§1) To screen a new tau aggregation inhibitor, tau-BiFC cell model making it possible to easily observe tau oligomer formation in living cells was treated an FDA-approved drug library (a total of 1018 compounds). As shown in a schematic view of FIG. 1, tau-BiFC cells were plated on a 384-well plate. On the next day, the tau-BiFC cells were treated with FDA-approved drugs (treatment concentration: 10 μM) together with the compound forskolin (treatment concentration: 30 μM) that activates tau kinase PKA to induce tau aggregation. After 46 hours, the tau aggregation inhibitory activities of the drugs were analyzed, and cell viability by the compounds was analyzed by cell nucleus staining with Hoechst. […] To further confirm the tau aggregation inhibitory activity of the selected levosimendan, tau-BiFC cells were treated with DMSO, MB or levosimendan (treatment concentration: 10 μM) together with the compound forskolin (treatment concentration: 30 μM) that activates tau kinase PKA to induce tau aggregation. At this time, methylene blue (MB) known to show tau aggregation inhibitory activity was used as a comparative compound (positive control). After 48 hours, the tau aggregation inhibitory activity of the compound was analyzed, and cell viability by the compound was analyzed by cell nucleus staining with Hoechst.
(§2) In addition, in order to further confirm the tau aggregation inhibitory activity of the selected levosimendan compound in living cells, tau-BiFC cells were treated with the tau inducer forskolin (treatment concentration: 30 μM) together with 1, 3, 10, 30 or 100 μM of the levosimendan compound. After 48 hours, tau aggregation reactions in the cells were analyzed by analysis of tau-BiFC response, and cell viability was analyzed to determine the toxicity of the compound.
The levosimendan compound has two metabolite forms ([…] and activated (OR-1896)). […] Specifically, tau-BiFC cells were treated with varying concentrations of each of MB, levosimendan, OR-1855 and OR-1896 compounds together with the tau aggregation inducer forskolin (treatment concentration: 30 μM). After 48 hours, the extent of tau aggregation in the cells was analyzed.

tau [2] = molecular target: T1, tau; experiment: Tau phosphorylation by Western blot of tau-BiFC cell lysates; type: cell-based; design: fused on or other part: N-terminal and C-terminal non-fluorescent fragments of Venus fused to tau (BiFC reporter handles); conditions: forskolin 30 μM, 36 hours
Procedure: In order to confirm whether the levosimendan compound would show tau aggregation inhibitory activity by inhibiting tau phosphorylation, Tau-BiFC cells were treated with the tau aggregation inducer forskolin (treatment concentration: 30 μM) and the levosimendan compound (treatment concentration: 15 μM). After 36 hours, the tau-BiFC cell lysates were analyzed by Western blot analysis to measure tau phosphorylation.

tau-BiFC cells = experiment: Cell viability by cell nucleus staining with Hoechst; type: cell-based; conditions: forskolin 30 μM; for cytotoxicity / cell viability (number of nuclei stained with Hoechst): 10 μM compound, 48 hours
Procedure: as §1
Furthermore, it could be seen that the fluorescence value of the test group (levosimendan) decreased, similar to that of the positive control group (MB).
as §2

tau aggregates = tau aggregates (Homo sapiens, UniProt P10636); experiment: In vitro dissociation of tau aggregates; type: biochemical; conditions: Tau-Agg+100 uM DTT+0.1 mg/mL Heparin, 37° C., varying concentrations
tau aggregates, sequence (P10636 1-441 isoform P10636-8): as above
Procedure: (§3) Thus, whether the levosimendan compound would be involved in the tau aggregation process to inhibit tau aggregation was examined. Specifically, whether the levosimendan compound would inhibit the tau aggregation process was analyzed in vitro, and whether the levosimendan compound would prevent additional aggregation of aggregated tau and dissociate the aggregation was analyzed in vitro. The tau aggregation process (Tau pre-Agg+100 uM DTT+0.1 mg/mL Heparin, incubated at 37° C.) in vitro was treated with varying concentrations of the levosimendan compound, and the degree of tau aggregation was analyzed with ThS (Thioflavin S). The ThS is a dye capable of measuring tau aggregation in vitro in real time, and is used as a fluorescence probe that detects β-sheet aggregation.

[3] = tested on: mouse cerebral cortical neuronal cells; experiment: Neuronal cell protection against TauK18P301L damage; type: cell-based; conditions: 10 μM, 2 hours before TauK18P301L 20 μg/mL; E18, DIV8
From the text: Whether the levosimendan compound would protect neuronal cells from neuronal cell damage was examined.

tau kinase = experiment: Tau kinase activity
tau [4] = molecular target: T1, tau; experiment: In vitro tau aggregation with ThS (Thioflavin S); type: biochemical; conditions: Tau pre-Agg+100 uM DTT+0.1 mg/mL Heparin, 37° C.
Procedure: as §3

[5] = 15 μM, vs forskolin-treated cells

SMILES: CN(C)c1ccc2nc3ccc(=[N+](C)C)cc-3sc2c1 [MB, methylene blue]
- concentration dependence of tau-BiFC fluorescence value (tau [1]; 48 hours): concentration-dependent decrease in the fluorescence value
- tau phosphorylation compared to forskolin-treated cells (tau [2]): decreased compared to that in the forskolin-treated cells
- cytotoxicity / cell viability (number of nuclei stained with Hoechst) (tau-BiFC cells): decreased
- cytotoxicity / cell viability (number of nuclei stained with Hoechst) (tau-BiFC cells; listed as methylene blue): cytotoxicity higher than that of the levosimendan compound

SMILES: C[C@@H]1CC(=O)NN=C1c1ccc(N)cc1 [OR-1855]
- tau aggregation in tau-BiFC cells (Example 5, metabolites comparison) (tau [1]; 48 hours): did not show tau aggregation inhibitory activity

SMILES: CC(=O)Nc1ccc(C2=NNC(=O)C[C@H]2C)cc1 [OR-1896]
- tau aggregation in tau-BiFC cells (Example 5, metabolites comparison) (tau [1]; 48 hours): did not show tau aggregation inhibitory activity

- IC50 (tau [1]; 1, 3, 10, 30 or 100 μM compound, 48 hours, read-out: IC50 of decrease in tau-BiFC fluorescence value): 2200 nM
- tau phosphorylation decrease at Ser199 (tau [2]; [5]): about 34%
- tau phosphorylation decrease at Ser396 (tau [2]; [5]): about 35%
- IC50 (tau [4]): 4.71 µM
SMILES: C[C@@H]1CC(=O)NN=C1c1ccc(NN=C(C#N)C#N)cc1 [levosimendan]
- tau-BiFC fluorescence value (RFU), tau aggregation inhibitory activity (tau [1]; 10 μM compound, 48 hours): decreased compared to that of the negative control group (DMSO)
- tau aggregation inhibitory activity in drug library screening (tau [1]; 10 μM, 46 hours, 384-well plate): tau aggregation inhibitory activity equal to that of methylene blue (MB)
- concentration dependence of tau-BiFC fluorescence value (tau [1]; 48 hours): concentration-dependent decrease in the fluorescence value
- tau aggregation in tau-BiFC cells (Example 5, metabolites comparison) (tau [1]; 48 hours): decreased similar to that in the positive control group (MB)
- tau phosphorylation compared to forskolin-treated cells (tau [2]): decreased compared to that in the forskolin-treated cells
- effect on tau aggregates in vitro (tau aggregates): had the effect of dissociating tau aggregates
- cell viability in drug library screening (tau-BiFC cells; 10 μM, 46 hours): cell viability equal to that of drug-untreated normal cells
- damage to neuronal cells, neuronal cell morphology and neurite length [3]: decreased compared to that in the negative control group (DMSO) and the positive control group (MB)
- changes in tau kinase activity (tau kinase): did not affect changes in tau kinase activity

From patent US9962384B1, “Levosimendan compound for preventing or treating tau-related diseases” (KOREA INSTITUTE OF SCIENCE AND TECHNOLOGY, priority 2017, dated 2018)
